# Measurements reported in PMC8636726 (Synthetic and Systems Biotechnology, 2021).
# Target: T1, EmbR protein (Mycobacterium tuberculosis, UniProt P9WGJ9)
# T1 sequence (P9WGJ9 1-388): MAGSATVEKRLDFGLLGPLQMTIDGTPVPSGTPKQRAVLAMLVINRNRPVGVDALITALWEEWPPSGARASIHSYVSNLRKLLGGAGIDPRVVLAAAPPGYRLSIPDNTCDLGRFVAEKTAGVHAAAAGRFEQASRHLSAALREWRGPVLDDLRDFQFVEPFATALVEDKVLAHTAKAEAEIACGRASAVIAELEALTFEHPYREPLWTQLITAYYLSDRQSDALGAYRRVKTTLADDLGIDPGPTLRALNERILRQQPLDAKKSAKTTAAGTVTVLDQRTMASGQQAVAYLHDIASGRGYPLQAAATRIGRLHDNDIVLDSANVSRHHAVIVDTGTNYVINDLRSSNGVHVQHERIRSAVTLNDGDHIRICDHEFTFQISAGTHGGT
# Type: binding
# Settings: BLI, clinical TB drugs tested as controls under the same conditions
row,SMILES,binding to EmbR
1,"CC[C@@H](CO)NCCN[C@@H](CC)CO [EMB, Ethambutol]",no significant binding
2,"NNC(=O)c1ccncc1 [INH, isoniazid]",no significant binding
3,"CO[C@H]1/C=C/O[C@@]2(C)Oc3c(C)c(O)c4c(O)c(c(/C=N/N5CCN(C)CC5)c(O)c4c3C2=O)NC(=O)/C(C)=C\C=C\[C@H](C)[C@H](O)[C@@H](C)[C@@H](O)[C@@H](C)[C@H](OC(C)=O)[C@@H]1C [RIF, rifampicin]",no significant binding
